# Experimental data taken from patent publication US20240374545A1, “DIAGNOSIS OF IMMUNITY REDUCTION THROUGH INTESTINAL MICROFLORA ANALYSIS OF STOMACH CANCER PATIENTS, AND THERAGNOSTIC COMPOSITION USING INTESTINAL MICROFLORA” (THE CATHOLIC UNIVERSITY OF KOREA INDUSTRY-ACADEMIC …, priority 2022, published 2024).
# Key:
# [1] = test system: Programmed Death-Ligand 1 (PD-L1); assay: PD-L1 positive cells in AGS stomach cancer cell line by flow cytometry; assay type: cell-based; settings: AGS cells, 0.2, 0.5, and 1 mM, compared to the Vehicle group (FIG. 2)
# Text: It was intended to confirm the expression of a Programmed Death-Ligand 1 (PD-L1) protein, an immunity reduction marker of stomach cancer cells, by SD217, a novel compound of the present invention. The PD-L1 protein was a surface protein of stomach cancer cells, and the PD-L1 is a protein that evaded the immune responses of T cells by binding to programmed cell death-1 (PD-1), a surface protein of activated T cells. […] Specifically, in the same manner as in Example 1, AGS cells, a stomach cancer cell line, were treated with 0.2, 0.5, and 1 mM of SD217 and reacted. Thereafter, PD-L1 positive cells were analyzed by flow cytometry. As a control group, a Vehicle group treated with PBS was used, and as a positive control group, 1 mM Metformin was used.
# [2] = test system: AGS cell line, a stomach cancer cell line; assay: Apoptosis of AGS stomach cancer cell line by Annexin/PI flow cytometry (SD217); assay type: cell-based; settings: 48 hours
# Procedure: It was determined whether SD217, a novel compound of the present invention, may specifically kill stomach cancer cells. Specifically, 2×10^5 of a AGS cell line, a stomach cancer cell line, was inoculated into a 6-well plate and then treated with SD217, the novel compound of the present invention, at a concentration of 0.2 mM after overnight, and after 48 hours, stained with Annexin/PI, and then apoptotic cells were analyzed by flow cytometry. As a control group, a Vehicle group treated with the same amount of PBS was used. Thereafter, early apoptotic cells were confirmed, a ratio of late apoptotic/necrotic cells was confirmed, and thus death of the stomach cancer cell line was confirmed.
# It was confirmed whether SD217, the novel compound of the present invention, induced early and late apoptosis in stomach cancer cell line. Specifically, 2×10^5 of a AGS cell line, a stomach cancer cell line, was inoculated into a 6-well plate and then treated with SD217, the novel compound of the present invention, at concentrations of 1, 5, 10, 20, and 50 mM after overnight, and after 48 hours, stained with Annexin/PI, and then apoptotic cells were analyzed by flow cytometry.
# [3] = test system: AGS cell line, a stomach cancer cell line; assay: Stomach cancer transplant animal model (AGS subcutaneous in NSG mice), tumor growth; assay type: in vivo; settings: NSG mice with AGS tumor, 50 mg/kg orally daily, compared to the Vehicle group (FIG. 3)
# Procedure: It was confirmed whether SD217, the novel compound of the present invention, inhibited tumor growth. Specifically, a stomach cancer transplant animal model was fabricated by subcutaneously injecting 5×10^6 of the AGS cell line, a stomach cancer cell line, into 6-8-week-old immunodeficient mice (NSG). Thereafter, SD217 was orally administered daily at a concentration of 50 mg/kg. After AGS cell injection and SD217 administration, tumor size was measured three times weekly using calipers, and tumor volume was calculated by substituting the lengths in long axis and short axis of the tumor into Equation 1 below. As a control group, a Vehicle group injected with the same amount of PBS was used.
# [4] = AGS cells, 1, 5, 10, 20, and 50 mM, compared to the Vehicle group (FIG. 4)
compound,measurement,setting,value
"N=C(N)NC(=N)Nc1ccc(F)cc1F [SD217, 1-(2,4-difluorophenyl) biguanide]",number of PD-L1 positive cells,[1],significantly reduced
same,apoptosis,"[2]; AGS cells, 0.2 mM, Annexin/PI, compared to the Vehicle group (FIG. 1)",significantly increased
same,early apoptosis,[2]; [4],induced in a concentration-dependent manner
same,late apoptosis,[2]; [4],induced in a concentration-dependent manner
same,tumor growth,[3],significantly inhibited
same,tumor volume,[3],significantly reduced
